# Values of other authors as cited in patent publication US20040014955A1, “Identification of essential genes of cryptococcus neoformans and methods of use” (priority 2001, published 2004).
# *1 amine or outer side, *2 acyl side, *3 side chain or, on linkers, in order; H or OH if unused. Where a SMILES comes first, the peptide text is derived from it. [ ]: non-standard residue; d: D form. X1 = CC[C@@H](C)[C@@H](O[*:1])C(=O)[*:2]; NMeVal(β-OH) = CN[C@H](C(=O)O)C(C)(C)O; NMeF = CN[C@@H](Cc1ccccc1)C(=O)O; NMeV = CN[C@H](C(=O)O)C(C)C
# Tested on: C. neoformans
# Settings: weanling outbred rats infected with C. neoformans by direct percranial puncture and inoculation into the cranium
smiles,measurement,value
CC[C@@H](C)[C@H]1OC(=O)[C@H](C(C)(C)O)N(C)C(=O)[C@H](CC(C)C)NC(=O)[C@H](C(C)C)N(C)C(=O)[C@H]([C@@H](C)CC)NC(=O)[C@@H]2CCCN2C(=O)[C@H](Cc2ccccc2)N(C)C(=O)[C@H](Cc2ccccc2)NC(=O)[C@H](C(C)C)N(C)C1=O [LY295337] (cyclo(F[NMeF]PI[NMeV]L[NMeVal(β-OH)][X1][NMeV])),fungal counts in brain tissue,reducing fungal counts in brain tissue
same,survival,effective in prolonging survival
